Measured values from US20260083704A1, “LXR MODULATORS WITH BICYCLIC CORE MOIETY FOR TREATING DYSLIPIDEMIAS” (OrsoBio, Inc., priority 2022, published 2026).

What was measured:
LXRα [1] = biological target: T1, LXRα (Homo sapiens, UniProt Q13133); test: LXR Gal4 reporter transient transfection assay (mammalian two-hybrid, HEK293), LXRα; format: cell-based; design: expressed in transfected cells; host or cells: HEK293; conditions: full length (FL) LXRα, HEK293; read-out: FL-M2H Gal4α
T1 sequence (Q13133 1-447): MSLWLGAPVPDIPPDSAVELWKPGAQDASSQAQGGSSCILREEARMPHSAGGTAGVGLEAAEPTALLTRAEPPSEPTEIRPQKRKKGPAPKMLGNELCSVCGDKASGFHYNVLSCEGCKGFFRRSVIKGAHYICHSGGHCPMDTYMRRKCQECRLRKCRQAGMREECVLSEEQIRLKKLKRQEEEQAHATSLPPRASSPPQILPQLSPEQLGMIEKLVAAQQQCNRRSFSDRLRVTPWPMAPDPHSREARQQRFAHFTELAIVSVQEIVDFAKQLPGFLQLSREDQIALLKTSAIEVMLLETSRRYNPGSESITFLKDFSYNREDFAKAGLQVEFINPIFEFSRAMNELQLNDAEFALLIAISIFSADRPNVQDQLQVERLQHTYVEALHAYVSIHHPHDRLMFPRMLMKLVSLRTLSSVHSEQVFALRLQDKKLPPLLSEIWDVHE
Procedure: (§1) LXRα and LXRβ activity status was determined via detection of interaction with coactivator and corepressor proteins in mammalian two-hybrid experiments (M2H). For this, via transient transfection the full length (FL) proteins of LXRα (amino acids 1-447; NP005684; SEQ ID NO:1) or LXRβ-(amino acids 1-461; NP009052; SEQ ID NO:2) or the ligand-binding domains (LBD) of LXRα (amino acids 155-447 SEQ ID NO:3) or LXRβ (amino acids 156-461; SEQ ID NO:4) were expressed from pCMV-AD (Stratagene) as fusions to the transcriptional activation domain of NFkB. As cofactors, domains of either the steroid receptor coactivator 1 (SRC1; amino acids 552-887; SEQ ID NO:5) or of the corepressor NCoR (amino acids 1906-2312; NP006302; SEQ ID NO:6) were expressed as fusions to the DNA binding domain of the yeast transcription factor GAL4 (from pCMV-BD; Stratagene). Interaction was monitored via activation of a coexpressed Firefly Luciferase Reporter gene under control of a promoter containing repetitive GAL4 response elements (vector pFRLuc; Stratagene). Transfection efficiency was controlled via cotransfection of constitutively active pRL-CMV Renilla reniformis luciferase reporter (Promega). HEK293 cells were grown in minimum essential medium (MEM) with 2 mM L-glutamine and Earle's balanced salt solution supplemented with 8.3% fetal bovine serum, 0.1 mM non-essential amino acids, 1 mM sodium pyruvate, at 37° C. in 5% CO2. 3.5×10^4 cells/well were plated in 96-well cell culture plates in growth medium supplemented with 8.3% fetal bovine serum for 16-20 h to ˜90% confluency. For transfection, medium was taken off and LXR and cofactor expressing plasmids as well as the reporter plasmids are added in 30 μL OPTIMEM/well including polyethylene-imine (PEI) as vehicle. Typical amounts of plasmids transfected/well: pCMV-AD-LXR (5 ng), pCMV-BD-cofactor (5 ng), pFR-Luc (100 ng), pRL-CMV (0.5 ng). Compound stocks were prepared in DMSO, prediluted in MEM to a total volume of 120 μL, and added 4 h after addition of the transfection mixture (final vehicle concentration not exceeding 0.2%). Cells were incubated for additional 16 h, lysed for 10 min in 1×Passive Lysis Buffer (Promega) and Firefly and Renilla luciferase activities were measured sequentially in the same cell extract using buffers containing D-luciferine and coelenterazine, respectively. Measurements of luminescence were done in a BMG-luminometer.
(§2) The potencies of Compound 21/3 and its analog, Compound pre-6/3, against LXRα and LXRβ were evaluated in biochemical binding assays, cellular mammalian two-hybrid (M2H) interaction assays evaluating nuclear receptor co-repressor (NCOR) recruitment, and cellular reporter assays evaluating transcriptional activity (Table 5).

LXRα [2] = biological target: T1, LXRα; test: Biochemical binding assay LXRα; conditions: mean ± SD; read-out: LXα binding EC50
Procedure: as §2

LXRβ = LXRβ (Homo sapiens, UniProt P55055); test: LXR Gal4 reporter transient transfection assay (mammalian two-hybrid, HEK293), LXRβ; format: cell-based; conditions: HEK293, NCOR recruitment, mean ± SD; read-out: HEK293 LXRβ/NCOR recruitment (M2H) EC50
Procedure, shortened: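 HEK293 cells transiently co-transfected with full-length or LBD LXRα/LXRβ fused to NFkB activation domain, GAL4-DBD-fused SRC1 or NCoR cofactor domain, GAL4-responsive firefly luciferase reporter and Renilla control. Compound added 4 h post-transfection (≤0.2% DMSO), incubated 16 h; firefly and Renilla luminescence read sequentially.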

ABCA1 reporter in HT-29 = test: HT-29 ABCA1 reporter assay; format: cell-based; conditions: Homo sapiens; HT-29, mean ± SD
Procedure: as §2

LXRα [3] = biological target: T2, LXRα (Homo sapiens, UniProt Q13133); test: LXR Gal4 reporter transient transfection assay (mammalian two-hybrid, HEK293), LXRα; format: cell-based; conditions: HEK293, NCOR recruitment, mean ± SD; read-out: HEK293 LXRα/NCOR recruitment (M2H) EC50
T2 construct: full length (FL) proteins of LXRα (amino acids 1-447); NP005684
Procedure: as §1, §2

HFD-fed ZDF rats = test: HFD-fed Zucker diabetic fatty (ZDF) rat model; format: in vivo
Text: Data are shown as mean±SD. N=5-8 animals per group. *p≤0.05, **p≤0.01, ***p≤0.001, ****p≤0.0001 vs. vehicle, unless otherwise indicated; ^#p≤0.05 pioglitazone vs. vehicle Kruskal-Wallis (non-parametric One-Way ANOVA) test with Dunn's multiple comparisons test (FIG. 4A, FIG. 4B, FIG. 4D), repeated measures two-way ANOVA with Dunnett's multiple comparisons test (FIG. 4C), two-way ANOVA with Sidak's multiple comparisons test (FIG. 4E), Mann-Whitney test (FIG. 4F-G).
Data are shown as mean±SD. N=5-8 animals per group. *p≤0.05, **p≤0.01, ***p≤0.001, ****p≤0.0001 vs. vehicle, unless otherwise indicated; ^#p≤0.05 pioglitazone vs. vehicle repeated measures two-way ANOVA with Dunnett's multiple comparisons test (FIG. 5A, FIG. 5C, FIG. 5D), Kruskal-Wallis (non-parametric one-way ANOVA) test with Dunn's multiple comparisons test (FIG. 5B, FIG. 5E).
The efficacy of Compound 21/3 was evaluated in three dysmetabolic rodent models including DIO mice, HFD-fed ZDF rats, and HFD-fed SD rats (FIG. 4 and FIG. 5). Briefly, DIO mice were fed a HFD (60% kcal from fat) for 14 weeks and treated with Compound 21/3 (0.3 and 1 mg/kg once daily by oral gavage) for three weeks, […]

Sequence of LXRβ (P55055 whole entry, the tested form may be a part): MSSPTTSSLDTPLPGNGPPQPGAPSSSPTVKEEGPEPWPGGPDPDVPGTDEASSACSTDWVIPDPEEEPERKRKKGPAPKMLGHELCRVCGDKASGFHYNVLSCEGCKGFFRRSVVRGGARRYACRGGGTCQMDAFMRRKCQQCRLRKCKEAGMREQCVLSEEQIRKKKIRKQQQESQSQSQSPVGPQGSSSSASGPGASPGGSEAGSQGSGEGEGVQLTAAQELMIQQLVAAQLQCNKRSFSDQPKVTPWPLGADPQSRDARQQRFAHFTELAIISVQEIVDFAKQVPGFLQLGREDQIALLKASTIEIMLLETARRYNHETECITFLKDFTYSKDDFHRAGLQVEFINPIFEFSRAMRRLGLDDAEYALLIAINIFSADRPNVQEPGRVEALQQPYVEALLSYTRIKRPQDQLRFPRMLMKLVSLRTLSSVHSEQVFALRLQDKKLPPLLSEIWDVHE
Sequence of LXRβ (O75376 1906-2312 partner): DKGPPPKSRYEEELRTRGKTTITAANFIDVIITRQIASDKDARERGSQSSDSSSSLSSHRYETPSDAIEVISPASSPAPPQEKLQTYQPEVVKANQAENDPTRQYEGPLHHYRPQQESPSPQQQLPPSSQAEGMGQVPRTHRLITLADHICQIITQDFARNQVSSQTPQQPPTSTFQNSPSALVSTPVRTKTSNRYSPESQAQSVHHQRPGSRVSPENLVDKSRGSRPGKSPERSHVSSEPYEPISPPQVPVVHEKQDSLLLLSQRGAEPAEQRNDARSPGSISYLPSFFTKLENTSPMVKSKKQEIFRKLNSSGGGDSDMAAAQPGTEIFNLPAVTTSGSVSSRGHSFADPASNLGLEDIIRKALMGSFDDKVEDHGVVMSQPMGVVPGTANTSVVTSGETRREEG

SMILES | EC50 (LXRα [1]) [nM] | EC50 (LXRα [2]) [nM] | EC50 (LXRβ) [nM] | IC50 (ABCA1 reporter in HT-29) [nM] | EC50 (LXRα [3]) [nM] | also measured
N#Cc1cccc(C#N)c1-c1c(-c2cccc([C@H]3CC[C@H](C(=O)O)CC3)c2)n(S(=O)(=O)c2ccc(C(F)F)cc2)c2ccc(F)cc12 [11/62] | < 100 |  |  |  |  | 
N#Cc1cccc(C#N)c1-c1c(-c2cccc(-c3ccc(C(=O)O)cc3Cl)c2)n(S(=O)(=O)c2ccc(C(F)F)cc2)c2ccc(F)cc12 [pre-6/3] |  | 14 ± 5 | 0.4 ± 0.2 | 0.7 ± 0.1 | 0.2 ± 0.1 | hepatic expression of Angptl3, Angptl4, Angptl8, ApoC1, ApoC2, ApoC3 (HFD-fed ZDF rats; 5 mg/kg once daily oral): suppressed
CS(=O)(=O)NC(=O)c1ccc(-c2cccc(-c3c(-c4c(C#N)cccc4C#N)c4cc(F)ccc4n3S(=O)(=O)c3ccc(C(F)F)cc3)c2)c(Cl)c1 [32/5] | < 100 |  |  |  |  | 
N#Cc1cccc(C#N)c1-c1c(-c2cccc(-c3ccc(C(=O)NCC(=O)O)cc3Cl)c2)n(S(=O)(=O)c2ccc(C(F)F)cc2)c2ccc(F)cc12 [Compound 21/3] |  | 7 ± 16 | 11 ± 19 | 15 ± 4 | 8 ± 7 | hepatic expression and plasma levels of ANGPTL3 (HFD-fed ZDF rats; 15 mg/kg once daily oral): reduced; immunostaining of pancreatic sections for insulin relative to vehicle (HFD-fed ZDF rats; 15 mg/kg once daily oral, 5 weeks): more prominent staining for insulin; glucose tolerance (oral glucose tolerance test) (HFD-fed ZDF rats; 15 mg/kg once daily oral, after 4 weeks of dosing): significantly improved; liver expression of DNL genes (Srebp1c, Fasn, Acaca, Scd1) (HFD-fed ZDF rats; 0.1 and 1 mg/kg once daily oral): dose-dependently reduced; reduction of plasma TG compared with vehicle (HFD-fed ZDF rats; highest dose 1 mg/kg, p≤0.05): 96%; maximal reduction of liver TG versus vehicle (HFD-fed ZDF rats; p≤0.01): 49%; reduction of plasma total cholesterol (TC) at end of treatment compared with vehicle (HFD-fed ZDF rats; p≤0.05): 67%
N#Cc1sccc1-c1c(-c2cccc(-c3ccc(C(=O)O)cc3Cl)c2)n(S(=O)(=O)c2ccc(C(F)F)cc2)c2ccc(F)cc12 [11/17] | < 100 |  |  |  |  | 
